Patent publication US20240217966A1, “PHARMACEUTICAL COMPOSITION CONTAINING GLP-1 RECEPTOR AGONIST HAVING FUSED RING” (Shionogi & Co., Ltd., priority 2021, published 2024)
Like-named read-outs stand apart in the source and are kept apart here.

Biological target: T1, Human GLP-1 receptor (Homo sapiens, UniProt P43220)
T1 construct: expressed in transfected cells
Assay: Measurement of GLP-1 receptor agonist activity (cAMP assay)
Assay type: cell-based
In short: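 hGLP-1R/CHO-K1 cells in HBSS with 0.1% BSA, 20 mM HEPES, 0.1 mM IBMX and 0.2 mM RO20-1724 exposed to compound plus forskolin (400 μM stock) for 1 h at 37 °C. Intracellular cAMP read by HTRF (cAMP-d2/anti-cAMP cryptate, 1 h at room temperature).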

[1] = CHO-K1, hGLP-1R/CHO-K1 cells, cAMP, 100% = human GLP-1 (7-36) at 2 nM, 0% = DMSO only, read-out: Emax(%)
[2] = hGLP-1R/CHO-K1 cells, cAMP increase, 37° C. 1 hour
[3] = CHO-K1, maximum effect, cAMP increase in GLP-1 R/CHO-K1 cells, 2 nM human GLP-1 (7-36) = 100%, DMSO only = 0%, read-out: Emax
[4] = cAMP increase in GLP-1 R/CHO-K1 cells, 2 nM human GLP-1 (7-36) = 100%, DMSO only = 0%

T1 sequence (P43220 24-463): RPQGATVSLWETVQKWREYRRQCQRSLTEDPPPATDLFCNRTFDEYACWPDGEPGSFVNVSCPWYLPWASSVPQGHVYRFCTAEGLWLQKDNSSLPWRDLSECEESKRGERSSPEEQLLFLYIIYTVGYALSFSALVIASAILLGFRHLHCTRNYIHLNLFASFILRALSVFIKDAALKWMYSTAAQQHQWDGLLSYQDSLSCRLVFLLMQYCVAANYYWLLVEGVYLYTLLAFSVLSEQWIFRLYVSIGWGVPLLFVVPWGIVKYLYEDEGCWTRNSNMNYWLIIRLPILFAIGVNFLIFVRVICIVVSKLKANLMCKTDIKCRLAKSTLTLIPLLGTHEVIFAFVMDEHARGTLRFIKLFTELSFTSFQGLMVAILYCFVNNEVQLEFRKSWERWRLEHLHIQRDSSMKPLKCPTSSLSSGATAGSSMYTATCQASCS

Compound	Emax [1] [%]	EC50 [2] [nM]	Emax [3] [%]	EC50 [4] [nM]	Emax(%) (hGLP-1R/CHO-K1 cells, cAMP, 100% = human GLP-1 (7-36) at 2 nM, 0% = DMSO only)
COc1ccc(COc2cc3c(cc2Cl)CCN(Cc2nc4c(F)cc(C(=O)O)cc4n2C[C@@H]2CCO2)[C@H]3C)cc1 [Compound I-331]	–	–	102	2.7	–
C[C@H]1c2cc(OCc3c(F)cc(F)cc3F)c(C(F)(F)F)cc2CCN1Cc1nc2ccc(C(=O)O)nc2n1C[C@@H]1CCO1 [Compound I-188]	90.3	1.79	–	–	–
COc1cc(Cl)ccc1COc1nc2c(cc1C(F)(F)F)CCN(Cc1nc3ccc(C(=O)O)c(F)c3n1C[C@@H]1CCO1)C2 [Compound I-296]	–	–	117	–	–
C[C@H]1c2nc(OCc3ccc(Cl)cc3)c(C(F)(F)F)cc2CCN1Cc1nc2ccc(C(=O)O)c(F)c2n1C[C@@H]1CCO1 [Compound I-223]	103	0.12	–	–	–
Cc1cc2c(cc1OCc1ccc(Cl)cc1F)C(=O)N(Cc1nc3ccc(C(=O)O)nc3n1C[C@@H]1CCO1)CC2 [Compound I-011]	92.7	70.8	–	–	–
C[C@H]1c2cc(OCc3ccc(Cl)cc3Cl)c(Cl)cc2CCN1Cc1nc2c(F)cc(C(=O)O)cc2n1C[C@@H]1CCO1 [Compound I-337]	–	–	104	0.325	–
Cc1ccc(COc2nc3c(cc2C(F)(F)F)CCN(Cc2nc4ccc(C(=O)O)c(F)c4n2C[C@@H]2CCO2)[C@H]3C)cc1 [Compound I-353]	–	–	115	0.0558	–
COc1cc(C(=O)O)cc2c1nc(CN1CCc3cc(C(F)(F)F)c(OCc4c(F)cc(F)cc4F)nc3[C@@H]1C)n2C[C@@H]1CCO1 [Compound I-285]	–	–	130	0.00862	–
COc1cc(Cl)ccc1COc1cc2c(cc1C(F)(F)F)CCN(Cc1nc3ccc(C(=O)O)nc3n1C[C@@H]1CCO1)[C@H]2C [Compound I-181]	116	0.374	–	–	–
C[C@H]1c2nc(OCc3ccc(Cl)cc3)c(C(F)(F)F)cc2CCN1Cc1nc2c(F)cc(C(=O)O)cc2n1C[C@@H]1CCO1 [Compound I-239]	–	–	95.3	0.0882	–
COc1cc(C(=O)O)cc2c1nc(CN1CCc3cc(C(F)(F)F)c(OCc4ccc(OC(F)F)cc4F)nc3[C@@H]1C)n2C[C@@H]1CCO1 [Compound I-283]	–	–	118	0.0283	–
Cc1csc(COc2cc3c(cc2C(F)(F)F)CCN(Cc2nc4ccc(C(=O)O)cc4n2C[C@@H]2CCO2)[C@H]3C)n1 [Compound I-173]	102	2.3	–	–	–
COc1cc(C(=O)O)cc2c1nc(CN1CCc3cc(C(F)(F)F)c(OCc4ccc(Cl)cn4)nc3[C@@H]1C)n2C[C@@H]1CCO1 [Compound I-392]	–	–	135	0.0156	–
C[C@H]1c2cc(OCc3ccccc3Cl)c(C(F)(F)F)cc2CCN1Cc1nc2c(F)cc(C(=O)O)cc2n1C[C@@H]1CCO1 [Compound I-209]	112	0.984	–	–	–
C[C@H]1c2nc(OCc3ccc(Cl)cc3F)c(C(F)(F)F)cc2CCN1Cc1nc2ccc(C(=O)O)nc2n1C[C@@H]1CCO1 [Compound I-275]	–	–	107	0.246	–
C[C@H]1c2cc(OCc3c(F)cc(F)cc3F)c(C(F)(F)F)cc2CCN1Cc1nc2ccc(C(=O)O)c(F)c2n1C[C@@H]1CCO1 [Compound I-126]	99.7	–	–	–	98.7
C[C@H]1c2nc(OCc3cc(F)c(Cl)cc3F)c(C(F)(F)F)cc2CCN1Cc1nc2ccc(C(=O)O)cc2n1C[C@@H]1CCO1 [Compound I-257]	–	–	115	0.0747	–
C[C@H]1c2nc(OCc3ccc(Cl)cc3F)c(I)cc2CCN1Cc1nc2ccc(C(=O)O)cc2n1C[C@@H]1CCO1 [Compound I-393]	–	–	121	0.099	–
Cc1ccc(COc2nc3c(cc2C(F)(F)F)CCN(Cc2nc4ccc(C(=O)O)c(F)c4n2C[C@@H]2CCO2)C3)cc1 [Compound I-295]	–	–	108	1.29	–
O=C(O)c1ccc2nc(Cc3cc4nc(OCc5ccc(Cl)cc5F)c(C(F)(F)F)nc4cc3F)n(C[C@@H]3CCO3)c2c1 [Compound I-128]	81.3	40.3	–	–	–
C[C@H]1c2nc(OCc3ccc(Cl)cc3Cl)c(C(F)(F)F)cc2CCN1Cc1nc2ccc(C(=O)O)cc2n1C[C@@H]1CCO1 [Compound I-255]	–	–	122	0.102	–
COc1cc(C(=O)O)cc2c1nc(CN1CCc3cc(C(F)(F)F)c(OCc4ccc(F)cc4)cc3[C@@H]1C)n2C[C@@H]1CCO1 [Compound I-236]	–	–	106	0.429	–
C[C@H]1c2cc(OCc3ccc(F)cc3)c(C(F)(F)F)cc2CCN1Cc1nc2ccc(C(=O)O)nc2n1C[C@@H]1CCO1 [Compound I-187]	105	4.2	–	–	–
COc1cc(C(=O)O)cc2c1nc(CN1CCc3cc(Cl)c(OCc4cc(F)c(Cl)cc4F)cc3[C@@H]1C)n2C[C@@H]1CCO1 [Compound I-346]	–	–	117	0.354	–
COc1ccc(COc2nc3c(cc2C(F)(F)F)CCN(Cc2nc4ccc(C(=O)O)cc4n2C[C@@H]2CCO2)C3)cc1 [Compound I-262]	–	–	109	4.47	–
COc1cc(Cl)ccc1COc1cc2c(cc1Cl)CCN(Cc1nc3c(OC)cc(C(=O)O)cc3n1C[C@@H]1CCO1)[C@H]2C [Compound I-343]	–	–	111	0.063	–
C[C@H]1c2nc(OCc3ccc(C4CC4)cc3)c(C(F)(F)F)cc2CCN1Cc1nc2ccc(C(=O)O)nc2n1C[C@@H]1CCO1 [Compound I-349]	–	–	117	1.27	–
COc1cc(C(=O)O)cc2c1nc(CN1CCc3cc(C(F)(F)F)c(OCc4ccc(C)cc4)nc3[C@@H]1C)n2C[C@@H]1CCO1 [Compound I-373]	–	–	122	0.0194	–
COc1ccc(COc2cc3c(cc2C(F)(F)F)CCN(Cc2nc4c(OC)cc(C(=O)O)cc4n2C[C@@H]2CCO2)[C@H]3C)cc1 [Compound I-224]	–	–	110	1.41	–
C[C@H]1c2cc(OCc3ccc(Cl)cc3Cl)c(Cl)cc2CCN1Cc1nc2ccc(C(=O)O)c(F)c2n1C[C@@H]1CCO1 [Compound I-325]	–	–	105	0.655	–

Second part, the compound after the results:

Emax [1] [%]	EC50 [2] [nM]	Emax [3] [%]	EC50 [4] [nM]	Emax(%) (hGLP-1R/CHO-K1 cells, cAMP, 100% = human GLP-1 (7-36) at 2 nM, 0% = DMSO only)	Compound
81.3	94.6	–	–	–	Cc1cc2c(cc1OCc1ccc(F)cc1F)CN(Cc1nc3ccc(C(=O)O)cc3n1C[C@@H]1CCO1)CC2 [Compound I-029]
87.3	24.2	–	–	–	O=C(O)c1ccc2nc(CN3CCc4cc(C(F)(F)F)c(OCc5ccc(Cl)cc5F)cc4C3)n(Cc3cccnc3)c2c1 [Compound I-051]
112	28.6	–	–	–	O=C(O)c1ccc2nc(CN3CCc4cc(C(F)(F)F)c(OCc5ccc(Cl)cc5F)cc4C3)n(C[C@@H]3CCO3)c2c1Cl [Compound I-078]
103	2.74	–	–	–	C[C@H]1c2cc(OCc3ccccc3Cl)c(C(F)(F)F)cc2CCN1Cc1nc2ccc(C(=O)O)cc2n1C[C@@H]1CCO1 [Compound I-165]
94.3	68.8	–	–	–	Cc1nc(COc2cc3c(cc2C(F)(F)F)CCN(Cc2nc4ccc(C(=O)O)cc4n2C[C@@H]2CCO2)C3)cs1 [Compound I-138]
120	1.24	–	–	–	C[C@H]1c2cc(OCc3ccc(C#N)cc3F)c(C(F)(F)F)cc2CCN1Cc1nc2ccc(C(=O)O)cc2n1C[C@@H]1CCO1 [Compound I-170]
109	1.58	–	–	–	C[C@H]1c2cc(OCc3ccc(Cl)cc3F)c(Cl)cc2CCN1Cc1nc2ccc(C(=O)O)cc2n1C[C@@H]1CCO1 [Compound I-174]
92.3	15	–	–	–	O=C(O)c1ccc2nc(CN3CCc4cc(Cl)c(OCc5ccc(Cl)cc5F)cc4C3)n(C[C@@H]3CCO3)c2c1 [Compound I-022]
89	75.8	–	–	–	Cc1cc2c(cc1OCc1ccc(C(F)(F)F)cc1F)CN(Cc1nc3ccc(C(=O)O)cc3n1C[C@@H]1CCO1)CC2 [Compound I-020]
111	4.47	–	–	–	Cc1ccc(COc2cc3c(cc2C(F)(F)F)CCN(Cc2nc4ccc(C(=O)O)cc4n2C[C@@H]2CCO2)C3)cc1 [Compound I-085]
103	8.71	–	–	–	O=C(O)c1cc2c(cc1F)nc(CN1CCc3cc(C(F)(F)F)c(OCc4ccc(Cl)cc4F)cc3C1)n2C[C@@H]1CCO1 [Compound I-034]
106	1.82	–	–	–	C[C@H]1c2cc(OCc3ccc(C(F)F)cc3F)c(C(F)(F)F)cc2CCN1Cc1nc2ccc(C(=O)O)cc2n1C[C@@H]1CCO1 [Compound I-215]
102	5.74	–	–	–	O=C(O)c1ccc2nc(CN3CCc4cc(C(F)(F)F)c(OCc5cc(F)c(Cl)cc5F)cc4C3)n(C[C@@H]3CCO3)c2c1 [Compound I-064]
–	–	107	0.0911	–	C[C@H]1c2nc(OCc3ccc(C#N)cc3F)c(C(F)(F)F)cc2CCN1Cc1nc2ccc(C(=O)O)cc2n1C[C@@H]1CCO1 [Compound I-258]
112	29.9	–	–	–	O=C(O)c1ccc2nc(CN3CCc4cc(C(F)(F)F)c(OCc5ccc(Cl)c(F)c5F)cc4C3)n(C[C@@H]3CCO3)c2c1 [Compound I-059]
93.7	101	–	–	–	CC(C)n1ccc(COc2cc3c(cc2C(F)(F)F)CCN(Cc2nc4ccc(C(=O)O)cc4n2C[C@@H]2CCO2)C3)n1 [Compound I-149]
66	99.5	–	–	–	C[C@@H]1c2cc(OCc3ccc(Cl)cc3F)c(C(F)(F)F)cc2CCN1Cc1nc2ccc(C(=O)O)cc2n1C[C@@H]1CCO1 [Compound I-036]
–	–	96.3	3.2	–	O=C(O)c1ccc2nc(CN3CCc4cc(C(F)(F)F)c(OCc5ccccc5Cl)nc4C3)n(C[C@@H]3CCO3)c2c1 [Compound I-277]
113	1.56	–	–	–	O=C(O)c1cc(Cl)c2nc(CN3CCc4cc(C(F)(F)F)c(OCc5ccc(Cl)cc5F)cc4C3)n(C[C@@H]3CCO3)c2c1 [Compound I-061]
